Results reported in patent publication US7745619B2, “Vinca derivatives” (priority 2003, dated 2010).
Like-named read-outs stand apart in the source and are kept apart here.

What was measured:
HeLa S-3 cells = assay: HeLa GI50 determination (SRB growth inhibition); format: cell-based, human
Method: Growth inhibition (GI50) values were measured on the human cervical carcinoma cell line, HeLa S-3, which were selected for growth on plastic. The HeLa cell assay was based on the description of Skehan et al., J. Natl. Cancer Inst., 82:1107-12 (1990), which is hereby incorporated by reference in its entirety. HeLa cells were plated at 2×10^4 cells/well in 96 well plates. One day later, a control plate was fixed by the addition of TCA to 5%. After five rinses with tap water, the plate was air-dried and stored at 4° C. Test compounds were added to the remaining plates at 10-fold dilutions. Two days later, all plates were fixed as described above. Cells were then stained by the addition of 100 μL per well of 0.4% sulforhodamine B (SRB) in 1% acetic acid for 30 min at 4° C. Wells were then quickly rinsed 5× with 1% acetic acid and allowed to air dry. The SRB was then solubilized by the addition of 100 μL per well of unbuffered 10 mM Tris base. Dye was quantified by measuring absorbance at 490 nm on a Molecular Devices microplate reader. Growth inhibition was calculated according to the following equation: GI=100×(T−T0)/(C−T0), where the optical density (OD) of the test well after 2 days of treatment was T, the OD of the wells in the control plate on day 0 was T0 and C was the OD of untreated wells. Plots of percent growth inhibition versus inhibitor concentration were used to determine the GI50.

MCF-7 cells = assay: MCF-7 GI50 determination (crystal violet growth inhibition); format: cell-based, human
Method: Growth inhibition (GI50) values were measured on the human breast carcinoma line, MCF-7. MCF-7 cells were plated at 2×10^4 cells/well in 96 well plates and grown for 24 hours in drug free media. On day 2, test compounds were added to the plates at 10-fold dilutions. Four days later, cells were fixed by the addition of glutaraldehyde to 0.75%. After 30 min, the fixed cells were extensively rinsed with distilled water and dried at room temperature for one hour. The cells were then stained with a 0.2% crystal violet solution for one hour at room temperature. Unbound stain was removed by ten rinses with tap water and plates were allowed to air dry for 30 min. The crystal violet was then solubilized by the addition of 10% acetic acid for 15 min and quantified by measuring absorbance at 570 nm on a Molecular Devices microplate reader. Growth inhibition was calculated according to the following equation: GI=[…], where the optical density (OD) of the test well after 4 days of treatment was T, the OD of the wells in the control plate on day 0 was T0. Plots of percent growth inhibition versus inhibitor concentration were used to determine the GI50.

[1] = Homo sapiens, HeLa S3, 48 h, read-out: HeLa Cells GI50 (nM)
[2] = Homo sapiens, MCF7, 96 h, read-out: MCF-7 Cells GI50 (nM)
[3] = Homo sapiens, HeLa S3, 48 h, HeLa S-3 cells, 2 days of treatment, sulforhodamine B, read-out: HeLa Cells GI50
[4] = Homo sapiens, MCF7, 96 h, MCF-7 cells, 4 days of treatment, crystal violet, read-out: MCF-7 Cells GI50

Row | Compound | GI50 (HeLa S-3 cells; [1]) [nM] | GI50 (MCF-7 cells; [2]) [nM] | GI50 (HeLa S-3 cells; [3]) [nM] | GI50 (MCF-7 cells; [4]) [nM] | also measured
1 | CC[C@]1(O)C[C@H]2CN(CCc3c([nH]c4ccc(SSC(C)C)cc34)[C@@](C(=O)OC)(c3cc4c(cc3OC)N(C)[C@H]3[C@@](O)(C(=O)OC)[C@H](OC(C)=O)[C@]5(CC)C=CCN6CC[C@]43[C@@H]65)C2)C1 [Example 58, 12′-(isopropyldisulfanyl) vinblastine] | 200 | 100 |  |  | 
2 | CCC1=C[C@H]2CN(CCc3c([nH]c4ccc(Br)cc34)[C@@](C(=O)OC)(c3cc4c(cc3OC)N(C=O)[C@H]3[C@@](O)(C(=O)OC)[C@H](OC(C)=O)[C@]5(CC)C=CCN6CC[C@]43[C@@H]65)C2)C1 [Example 99, 12′-bromoanhydro vincristine] |  |  | 4 | 1 | 
3 | CC[C@]1(O)C[C@H]2CN(CCc3c([nH]c4ccc(Sc5ccccc5O)cc34)[C@@](C(=O)OC)(c3cc4c(cc3OC)N(C)[C@H]3[C@@](O)(C(=O)OC)[C@H](OC(C)=O)[C@]5(CC)C=CCN6CC[C@]43[C@@H]65)C2)C1 [Example 55, 12′-(2-hydroxyphenylsulfanyl)vinblastine] | 19 | 6 |  |  | 
4 | CCCCCCc1ccc2[nH]c3c(c2c1)CCN1C[C@H](C[C@@](O)(CC)C1)C[C@]3(C(=O)OC)c1cc2c(cc1OC)N(C=O)[C@H]1[C@@](O)(C(=O)OC)[C@H](OC(C)=O)[C@]3(CC)C=CCN4CC[C@]21[C@@H]43 [Example 74, 12′-hexylvincristine] |  |  | 30 | 40 | 
5 | CC[C@]1(O)C[C@H]2CN(CCc3c([nH]c4ccc(SCC(=O)O)cc34)[C@@](C(=O)OC)(c3cc4c(cc3OC)N(C)[C@H]3[C@@](O)(C(=O)OC)[C@H](OC(C)=O)[C@]5(CC)C=CCN6CC[C@]43[C@@H]65)C2)C1 [Example 45, 12′-(carboxymethylsulfanyl)vinblastine] | 50 | 200 |  |  | 
6 | di(12′-vinblastine) disulfide [Example 60] |  |  |  |  | GI50 (HeLa S-3 cells; HeLa S-3 cells, 2 days of treatment, sulforhodamine B, read-out: HeLa Cells GI50): 10 nM; GI50 (MCF-7 cells; MCF-7 cells, 4 days of treatment, crystal violet, read-out: MCF-7 Cells GI50): 20 nM
7 | CC[C@]1(O)C[C@H]2CN(CCc3c([nH]c4ccc(S)cc34)[C@@](C(=O)OC)(c3cc4c(cc3OC)N(C)[C@H]3[C@@](O)(C(=O)OC)[C@H](OC(C)=O)[C@]5(CC)C=CCN6CC[C@]43[C@@H]65)C2)C1 [Example 53, 12′-thiovinblastine] |  |  | 20 | 30 | 
8 | CC[C@]1(O)C[C@H]2CN(CCc3c([nH]c4ccc(SCCNC(C)=O)cc34)[C@@](C(=O)OC)(c3cc4c(cc3OC)N(C)[C@H]3[C@@](O)(C(=O)OC)[C@H](OC(C)=O)[C@]5(CC)C=CCN6CC[C@]43[C@@H]65)C2)C1 [Example 52, 12′-(2-(acetylamino)ethylsulfanyl) vinblastine] | 200 | 300 |  |  | 
9 | CC[C@]1(O)C[C@H]2CN(CCc3c([nH]c4ccc(-c5cccc(F)c5)cc34)[C@@](C(=O)OC)(c3cc4c(cc3OC)N(C)[C@H]3[C@@](O)(C(=O)OC)[C@H](OC(C)=O)[C@]5(CC)C=CCN6CC[C@]43[C@@H]65)C2)C1 [Example 11, 12′-(3-fluorophenyl) vinblastine] | 300 | 300 |  |  | 
10 | CC[C@]1(O)C[C@H]2CN(CCc3c([nH]c4ccc(SCC(=O)OC(C)(C)C)cc34)[C@@](C(=O)OC)(c3cc4c(cc3OC)N(C)[C@H]3[C@@](O)(C(=O)OC)[C@H](OC(C)=O)[C@]5(CC)C=CCN6CC[C@]43[C@@H]65)C2)C1 [Example 44, 12′-(tert-butoxycarbonylmethylsulfanyl) vinblastine] | 70 | 100 |  |  | 
11 | CCCCC#Cc1ccc2[nH]c3c(c2c1)CCN1C[C@H](C[C@@](O)(CC)C1)C[C@]3(C(=O)OC)c1cc2c(cc1OC)N(C)[C@H]1[C@@](O)(C(=O)OC)[C@H](OC(C)=O)[C@]3(CC)C=CCN4CC[C@]21[C@@H]43 [Example 23, 12′-hexynylvinblastine] |  |  | 40 | 50 | 
12 | CC[C@]1(O)C[C@H]2CN(CCc3c([nH]c4ccc(SCCCN5CCOCC5)cc34)[C@@](C(=O)OC)(c3cc4c(cc3OC)N(C)[C@H]3[C@@](O)(C(=O)OC)[C@H](OC(C)=O)[C@]5(CC)C=CCN6CC[C@]43[C@@H]65)C2)C1 [Example 49, 12′-(3-(morpholin-4-yl)propylsulfanyl) vinblastine] | 8 | 30 |  |  | 
13 | CC[C@]1(O)C[C@H]2CN(CCc3c([nH]c4ccc(-c5ccc(OC)cc5)cc34)[C@@](C(=O)OC)(c3cc4c(cc3OC)N(C=O)[C@H]3[C@@](O)(C(=O)OC)[C@H](OC(C)=O)[C@]5(CC)C=CCN6CC[C@]43[C@@H]65)C2)C1 [Example 7, 12′-(4-methoxyphenyl) vincristine] | 400 | 100 |  |  | 
14 | CCC1=C[C@H]2CN(CCc3c([nH]c4ccc(I)cc34)[C@@](C(=O)OC)(c3cc4c(cc3OC)N(C)[C@H]3[C@@](O)(C(=O)OC)[C@H](OC(C)=O)[C@]5(CC)C=CCN6CC[C@]43[C@@H]65)C2)C1 [Example 98, 12′-iodoanhydro vinblastine] | 50 | 305 |  |  | 
15 | CC[C@]1(O)C[C@H]2CN(CCc3c([nH]c4ccc(CO)cc34)[C@@](C(=O)OC)(c3cc4c(cc3OC)N(C)[C@H]3[C@@](O)(C(=O)OC)[C@H](OC(C)=O)[C@]5(CC)C=CCN6CC[C@]43[C@@H]65)C2)C1 [Example 63, 12′-(hydroxymethyl) vinblastine] |  |  | 40 | 60 | 
16 | CCCCC#Cc1ccc2[nH]c3c(c2c1)CCN1C[C@H](C[C@@](O)(CC)C1)C[C@]3(C(=O)OC)c1cc2c(cc1OC)N(C=O)[C@H]1[C@@](O)(C(=O)OC)[C@H](OC(C)=O)[C@]3(CC)C=CCN4CC[C@]21[C@@H]43 [Example 22, 12′-hexynylvincristine] | 300 | 300 |  |  | 
17 | CC[C@]1(O)C[C@H]2CN(CCc3c([nH]c4ccc(SCCO)cc34)[C@@](C(=O)OC)(c3cc4c(cc3OC)N(C)[C@H]3[C@@](O)(C(=O)OC)[C@H](OC(C)=O)[C@]5(CC)C=CCN6CC[C@]43[C@@H]65)C2)C1 [Example 35, 12′-(2-hydroxyethylsulfanyl)vinblastine] |  |  | 200 | 60 | 
18 | CCc1cc2[nH]c3c(c2cc1C)CCN1C[C@H](C[C@@](O)(CC)C1)C[C@]3(C(=O)OC)c1cc2c(cc1OC)N(C=O)[C@H]1[C@@](O)(C(=O)OC)[C@H](OC(C)=O)[C@]3(CC)C=CCN4CC[C@]21[C@@H]43 [Example 94, 13′-ethyl-12′-methyl vincristine] | 30 | 50 |  |  | 
19 | CC[C@]1(O)C[C@H]2CN(CCc3c([nH]c4ccc(SSC)cc34)[C@@](C(=O)OC)(c3cc4c(cc3OC)N(C)[C@H]3[C@@](O)(C(=O)OC)[C@H](OC(C)=O)[C@]5(CC)C=CCN6CC[C@]43[C@@H]65)C2)C1 [Example 57, 12′-(methyldisulfanyl) vinblastine] |  |  | 300 | 300 | 
20 | CC[C@]1(O)C[C@H]2CN(CCc3c([nH]c4ccc(-c5ccccc5)cc34)[C@@](C(=O)OC)(c3cc4c(cc3OC)N(C=O)[C@H]3[C@@](O)(C(=O)OC)[C@H](OC(C)=O)[C@]5(CC)C=CCN6CC[C@]43[C@@H]65)C2)C1 [Example 5, 12′-phenylvincristine] | 50 | 30 |  |  | 
21 | CC[C@]1(O)C[C@H]2CN(CCc3c([nH]c4ccc(C#CC(C)C)cc34)[C@@](C(=O)OC)(c3cc4c(cc3OC)N(C=O)[C@H]3[C@@](O)(C(=O)OC)[C@H](OC(C)=O)[C@]5(CC)C=CCN6CC[C@]43[C@@H]65)C2)C1 [Example 21, 12′-(3-methylbutynyl) vincristine] | 300 | 300 |  |  | 
